Tests used:
Assay type in all cases: cell-based, human
NCI-H226 = test: NCI screening panel, NCI-H226 (Non-Small Cell Lung Cancer)
Protocol: (§1) Representative compounds of Formula I were screened using the National Cancer Institute (NCI) screening panel, which consists of a panel of human tumor cell lines, representing leukemia, melanoma, and cancers of the lung, colon, ovary, breast, prostate and renal system.
(§2) After 24 h, two plates of each cell line are fixed in situ with TCA, to represent a measurement of the cell population for each cell line at the time of drug addition (Tz). Experimental drugs are solubilised in dimethyl sulfoxide at 400-fold the desired final maximum test concentration and stored frozen prior to use. At the time of drug addition, an aliquot of frozen concentrate is thawed and diluted to twice the desired final maximum test concentration with complete medium containing 50 μg/mL gentamicin. Additional four, 10-fold or ½ log serial dilutions are made to provide a total of five drug concentrations plus control. Aliquots of 100 μl of these different drug dilutions are added to the appropriate microtiter wells already containing 100 μl of medium, resulting in the required final drug concentrations.
(§3) Following drug addition, the plates are incubated for an additional 48 h at 37° C., 5% CO2, 95% air, and 100% relative humidity. For adherent cells, the assay is terminated by the addition of cold TCA (trichloroacetic acid). Cells are fixed in situ by the gentle addition of 50 μl of cold 50% (w/v) TCA (final concentration, 10% TCA) and incubated for 60 minutes at 4° C. The supernatant is discarded, and the plates are washed five times with tap water and air dried. Sulforhodamine B (SRB) solution (100 μl) at 0.4% (w/v) in 1% acetic acid is added to each well, and plates are incubated for 10 minutes at room temperature. After staining, unbound dye is removed by washing five times with 1% acetic acid and the plates are air dried. Bound stain is subsequently solubilised with 10 mM trizma base, and the absorbance is read on an automated plate reader at a wavelength of 515 nm. For suspension cells, the methodology is the same except that the assay is terminated by fixing settled cells at the bottom of the wells by gently adding 50 μl of 80% TCA (final concentration, 16% TCA). Using the seven absorbance measurements [time zero, (Tz), control growth, (C), and test growth in the presence of drug at the five concentration levels (Ti)], the percentage growth is calculated at each of the drug concentrations levels. Percentage growth inhibition is calculated as: [(Ti−Tz)/(C−Tz)]×100 for concentrations for which Ti>/=Tz and [(Ti−Tz)/Tz]×100 for concentrations for which Ti<Tz.
(§4) Three dose response parameters are calculated for each experimental agent. Growth inhibition of 50% (GI50) is calculated from [(Ti−Tz)/(C−Tz)]×100=50, which is the drug concentration resulting in a 50% reduction in the net protein increase (as measured by SRB staining) in control cells during the drug incubation. The drug concentration resulting in total growth inhibition (TGI) is calculated from Ti=Tz. The LC50 (concentration of drug resulting in a 50% reduction in the measured protein at the end of the drug treatment as compared to that at the beginning) indicating a net loss of cells following treatment is calculated from [(Ti−Tz)/Tz]×100=−50. Values are calculated for each of these three parameters if the level of activity is reached. However, if the effect is not reached or is exceeded, the value for that parameter is expressed as greater or less than the maximum or minimum concentration tested.

NCI-H460 = test: NCI screening panel, NCI-H460 (Non-Small Cell Lung Cancer)
Protocol: as §1, §2, §3, §4

NCI-H23 = test: NCI screening panel, NCI-H23 (Non-Small Cell Lung Cancer)
Protocol: as §1, §2, §3, §4

HT29 = test: NCI screening panel, HT29 (Colon Cancer)
Protocol: as §1, §2, §3, §4

SNB-19 = test: NCI screening panel, SNB-19 (CNS Cancer)
Protocol: as §1, §2, §3, §4

DU-145 = test: NCI screening panel, DU-145 (Prostate Cancer)
Protocol: as §1, §2, §3, §4

HCC-2998 = test: NCI screening panel, HCC-2998 (Colon Cancer)
Protocol: as §1, §2, §3, §4

MDA-MB-468 = test: NCI screening panel, MDA-MB-468 (Breast Cancer)
Protocol: as §1, §2, §3, §4

SK-MEL-28 = test: NCI screening panel, SK-MEL-28 (Melanoma)
Protocol: as §1, §2, §3, §4

MCF7 = test: NCI screening panel, MCF7 (Breast Cancer)
Protocol: as §1, §2, §3, §4

CAKI-1 = test: NCI screening panel, CAKI-1 (Renal Cancer)
Protocol: as §1, §2, §3, §4

COLO 205 = test: NCI screening panel, COLO 205 (Colon Cancer)
Protocol: as §1, §2, §3, §4

| SMILES | Log10GI50 (NCI-H226) | Log10LC50 (NCI-H226) | Log10TGI50 (NCI-H226) | Log10GI50 (NCI-H460) | Log10LC50 (NCI-H460) | Log10TGI50 (NCI-H460) | Log10GI50 (NCI-H23) | Log10LC50 (NCI-H23) | Log10TGI50 (NCI-H23) | Log10GI50 (HT29) | Log10LC50 (HT29) | Log10TGI50 (HT29) | Log10GI50 (SNB-19) | Log10LC50 (SNB-19) | Log10TGI50 (SNB-19) | Log10GI50 (DU-145) | Log10LC50 (DU-145) | Log10TGI50 (DU-145) | Log10GI50 (HCC-2998) | Log10LC50 (HCC-2998) | further results |
| --- | --- | --- | --- | --- | --- | --- | --- | --- | --- | --- | --- | --- | --- | --- | --- | --- | --- | --- | --- | --- | --- |
| CC(C)C[C@H](NC(=O)[C@H](COC(F)F)NC(=O)[C@H](COC(F)F)NC(=O)[C@H](CCc1ccccc1)NC(=O)CN1CCOCC1)C(=O)[C@@]1(C)CO1 [Example 7, (2S)-N-[(1S)-1-(difluoromethoxymethyl)-2-[[(1S)-1-(difluoromethoxymethyl)-2-[[(1S)-3-methyl-1-[(2R)-2-methyloxirane-2-carbo-nyl]butyl]amino]-2-oxo-ethyl]amino]-2-oxo-ethyl]-2-[(2-morpholinoacetyl)amino]-4-phenyl-butanamide] | −7.75 | −7.08 | −7.41 | −7.28 | >−4.00 | −6.50 | −7.57 | >−4.00 | −5.58 | <−8.00 | >−4.00 | −4.93 | −7.14 | >−4.00 | >−4.00 | −7.42 | >−4.00 | −4.75 | −7.60 | −6.55 | Log10TGI50 (HCC-2998): −7.21; Log10GI50 (MDA-MB-468): −7.58; Log10LC50 (MDA-MB-468): −4.78; Log10TGI50 (MDA-MB-468): −7.09; Log10GI50 (SK-MEL-28): −7.44; Log10TGI50 (SK-MEL-28): >−4.00; Log10GI50 (MCF7): <−8.00; Log10LC50 (MCF7): >−4.00; Log10TGI50 (MCF7): >−4.00; Log10GI50 (CAKI-1): −6.40; Log10LC50 (CAKI-1): >−4.00; Log10TGI50 (CAKI-1): −5.62; Log10GI50 (COLO 205): −7.23; Log10LC50 (COLO 205): >−4.00; Log10TGI50 (COLO 205): −5.89 |
| CC(C)C[C@H](NC(=O)[C@H](Cc1ccccc1)NC(=O)[C@H](COC(F)F)NC(=O)[C@H](COC(F)F)NC(=O)CN1CCOCC1)C(=O)[C@@]1(C)CO1 [Example 11, (2S)-2-[[(2S)-3-(difluoromethoxy)-2-[[(2S)-3-(difluoromethoxy)-2-[(2-morpholinoacetyl)-amino]propanoyl]amino]propanoyl]amino]-N-[(1S)-3-methyl-1-[(2R)-2-methyloxirane-2-carbonyl]butyl]-3-phenyl-propanamide] | −7.77 | −7.11 | −7.44 | −7.29 | −4.85 | −6.51 | −7.50 | >−4.00 | −5.55 | −7.70 | >−4.00 | −5.91 | −7.20 | >−4.00 | >−4.00 | −7.31 | >−4.00 | −5.94 | −7.66 | −6.95 | Log10TGI50 (HCC-2998): −7.33; Log10GI50 (MDA-MB-468): −7.62; Log10LC50 (MDA-MB-468): −4.67; Log10TGI50 (MDA-MB-468): −7.06; Log10GI50 (SK-MEL-28): −7.20; Log10LC50 (SK-MEL-28): >−4.00; Log10TGI50 (SK-MEL-28): −5.55; Log10GI50 (MCF7): <−8.00; Log10LC50 (MCF7): >−4.00; Log10TGI50 (MCF7): >−4.00; Log10GI50 (CAKI-1): −6.39; Log10LC50 (CAKI-1): >−4.00; Log10TGI50 (CAKI-1): −5.55; Log10GI50 (COLO 205): −7.21; Log10LC50 (COLO 205): >−4.00; Log10TGI50 (COLO 205): −5.31 |
| CC(C)C[C@H](NC(=O)[C@H](COC(F)F)NC(=O)[C@H](COC(F)F)NC(=O)[C@H](COC(F)F)NC(=O)CN1CCOCC1)C(=O)[C@@]1(C)CO1 [Example 17, (2S)-3-(difluoromethoxy)-N-[(1S)-1-(difluoromethoxymethyl)-2-[[(1S)-1-(difluoro-methoxymethyl)-2-[[(1S)-3-methyl-1-[(2R)-2-methyloxirane-2-carbonyl]butyl]amino]-2-oxo-ethyl]amino]-2-oxo-ethyl]-2-[(2-mor-pholinoacetyl)amino]-propanamide] | −7.15 | −6.14 | −6.61 | −6.50 | −4.60 | −5.88 | −7.15 | >−4.00 | −5.98 | −7.30 | >−4.00 | −6.28 | −7.16 | >−4.00 | −4.67 | −7.07 | >−4.00 | −4.84 | −6.74 | −6.19 | Log10TGI50 (HCC-2998): −6.46; Log10GI50 (MDA-MB-468): −7.04; Log10LC50 (MDA-MB-468): >−4.00; Log10TGI50 (MDA-MB-468): −6.17; Log10GI50 (SK-MEL-28): −6.97; Log10LC50 (SK-MEL-28): >−4.00; Log10TGI50 (SK-MEL-28): −5.69; Log10GI50 (MCF7): −7.57; Log10LC50 (MCF7): >−4.00; Log10TGI50 (MCF7): >−4.00; Log10GI50 (CAKI-1): −5.54; Log10LC50 (CAKI-1): >−4.00; Log10TGI50 (CAKI-1): −4.81; Log10GI50 (COLO 205): −6.62; Log10LC50 (COLO 205): >−4.00; Log10TGI50 (COLO 205): −4.76 |
